Read-outs that look alike come from different tables or passages of the source.
Assays:
[1] = tested on: HDAC; conditions: literature statements; cited from earlier work
[2] = tested on: sirtuin protein; test: FP assay (IC50 FP ASSAY / ED50 FP); type: biochemical; conditions: Table 4
[3] = target: T1, sirtuin protein (Homo sapiens, UniProt Q96EB6); test: MS assay (IC50 MS ASSAY / ED50 MS / FOLD ACTIVATION MS); type: biochemical; set-up: scale not given here
T1 sequence (Q96EB6 2-747 limits assumed): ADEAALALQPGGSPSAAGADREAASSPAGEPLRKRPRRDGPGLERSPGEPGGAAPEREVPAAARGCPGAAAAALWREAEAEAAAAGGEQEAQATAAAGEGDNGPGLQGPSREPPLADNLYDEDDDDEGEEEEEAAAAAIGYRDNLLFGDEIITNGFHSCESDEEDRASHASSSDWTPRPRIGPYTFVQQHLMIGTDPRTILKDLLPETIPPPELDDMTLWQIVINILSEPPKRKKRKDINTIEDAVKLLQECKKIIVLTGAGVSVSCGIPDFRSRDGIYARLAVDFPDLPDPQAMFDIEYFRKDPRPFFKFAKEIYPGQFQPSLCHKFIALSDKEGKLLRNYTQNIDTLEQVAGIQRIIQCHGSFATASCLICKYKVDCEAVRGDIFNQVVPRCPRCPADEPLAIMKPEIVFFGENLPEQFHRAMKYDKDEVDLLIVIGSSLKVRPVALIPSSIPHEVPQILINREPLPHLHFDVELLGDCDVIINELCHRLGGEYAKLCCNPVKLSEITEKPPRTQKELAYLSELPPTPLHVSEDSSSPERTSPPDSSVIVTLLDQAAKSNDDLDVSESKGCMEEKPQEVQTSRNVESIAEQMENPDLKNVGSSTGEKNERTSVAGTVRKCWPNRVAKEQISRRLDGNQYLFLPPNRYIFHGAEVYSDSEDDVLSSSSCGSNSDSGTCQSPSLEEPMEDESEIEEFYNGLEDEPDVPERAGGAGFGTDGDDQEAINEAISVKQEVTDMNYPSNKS

[4] = target: cytochrome oxidase (Complex IV) (Homo sapiens, UniProt P00395); conditions: cited from earlier work
[5] = topical; cited from earlier work
[6] = MS assay, class symbols, key not given
[7] = Table 4, class symbols A′, A, B, C, NA, legend not given

Compound: O=C(/C=C/c1cccc(C(=O)NO)c1)NO [CBHA, m-carboxy-cinnamic acid bishydroxamic acid]
- inhibition of HDAC [1]: inhibit HDAC at micromolar concentration or lower

Compound: O=C1CN(Cc2csc3nc(-c4ccccc4NC(=O)c4cnc5ccccc5n4)cn23)CCN1 [Compound 677]
- ED50 FP ASSAY [2]: A′
- ED50 MS ASSAY [3]: A′
- ED50 MS ASSAY ([3]; Table 4, class symbols): A′
- ED50 MS ASSAY ([3]; Table 4, class symbols A′, A, B, D, NA, legend not given): A′
- ED50 MS ASSAY ([3]; class symbols (A′, A, B, D, NA), no legend given): A′

Compound: COc1cc(C(=O)Nc2ccccc2-c2cn3c(C)csc3n2)cc(OC)c1OC [Compound 739]
- ED50 MS ASSAY [3]: A′
- ED50 MS ASSAY [3, 6]: A′
- ED50 MS ASSAY ([3]; TABLE 4): A′
- ED50 MS ASSAY ([3]; Table 4): A′
- ED50 MS ASSAY [3, 7]: A′

Compound: Cc1csc2nc(-c3ccccc3NC(=O)c3cccc(N(C)C)c3)cn12 [Compound 740]
- ED50 MS ASSAY [3]: A′
- ED50 MS ASSAY [3, 6]: A′
- ED50 MS ASSAY ([3]; TABLE 4): A′
- ED50 MS ASSAY ([3]; Table 4): A′
- ED50 MS ASSAY [3, 7]: A′

Compound: CN1CCN(Cc2csc3nc(-c4ccccc4NC(=O)c4cnc5ccccc5n4)cn23)C(=O)C1 [Compound 741]
- ED50 MS ASSAY [3]: A′
- ED50 MS ASSAY [3, 6]: A′
- ED50 MS ASSAY ([3]; TABLE 4): A′
- ED50 MS ASSAY ([3]; Table 4): A′
- ED50 MS ASSAY [3, 7]: A′

Compound: O=C(Nc1ccccc1-c1cn2c(CN3CCSCC3)csc2n1)c1cnc2ccccc2n1 [Compound 742]
- ED50 MS ASSAY [3]: A′
- ED50 MS ASSAY [3, 6]: A′
- ED50 MS ASSAY ([3]; TABLE 4): A′
- ED50 MS ASSAY ([3]; Table 4): A′
- ED50 MS ASSAY [3, 7]: A′

Compound: O=C(Nc1ccccc1-c1cn2c(Cn3ccnc3)csc2n1)c1cnc2ccccc2n1 [Compound 745]
- ED50 MS ASSAY [3]: A′
- ED50 MS ASSAY [3, 6]: A′
- ED50 MS ASSAY ([3]; TABLE 4): A′
- ED50 MS ASSAY ([3]; Table 4): A′
- ED50 MS ASSAY [3, 7]: A′

Compound: C/C=C1\NC(=O)[C@H]2CSSCC/C=C/[C@H](CC(=O)N[C@H](C(C)C)C(=O)N2)OC(=O)[C@H](C(C)C)NC1=O [Depsipeptide, depsipeptide]
- inhibition of HDAC [1]: inhibit HDAC activity at micromolar concentrations

Compound: [N]=O [Nitric oxide]
- concentration that inhibits cytochrome oxidase (Complex IV) [4]: about 1 micromolar

Compound: CC(C)(C)NC[C@H](O)COc1nsnc1N1CCOCC1 [timolol]
- time for IOP to fall [5]: 30 min
- time of peak effects on IOP [5]: 1 to 2 h

Compound: depudecin
- inhibition of HDAC [1]: inhibit HDAC at micromolar concentrations

Compound: trichostatin A [TSA]
- inhibition of HDAC [1]: potent inhibitor of mammalian HDAC
